In paper PMC8899577, “Targeting the anti-apoptotic Bcl-2 family proteins: machine learning virtual screening and biological evaluation of new small molecules” (Theranostics, 2022):

Legend:
[1] = system: HL60 cells; experiment: Western blot of PARP1 cleavage, HL60; format: cell-based, Human; conditions: 20 µM for 24 h
Protocol: Western blot analyses of total protein extracts were performed as previously described. Immunodetection was performed using antibodies directed to poly (ADP-ribose) polymerase (PARP; BD Biosciences San Diego, CA, USA), LC3B (Cell Signaling Technology, Danvers, MA), HSP72/73 (Calbiochem, EMD Biosciences, La Jolla, CA), Bcl-2 (SC-509, Santa Cruz Biotechnology Inc, Dallas, TX, USA), Bcl-xL (SC-271121, Santa Cruz Biotechnology Inc), Mcl-1 (SC-12756, Santa Cruz Biotechnology Inc) α-tubulin (Santa Cruz Biotechnology Inc) actin (Sigma-Aldrich, St. Louis, Missouri, USA). Anti-rabbit or anti-mouse immunoglobulin G-horseradish peroxidase-conjugated antibodies (Amersham Biosciences, Freiburg, Germany) were used as secondary antibody. Images were acquired by Image Lab Software (Bio-Rad, Hercules, CA, USA), using a ChemiDoc System instrument (Bio-Rad). […]
Figure 5 Analysis of apoptosis induction by IS20 and IS21 in leukemia, melanoma and NSCLC cells. […] (G) Flow cytometric quantification of cells in the subG1 peak of cell cycle distribution by propidium iodide staining in HL60 cell line treated with IS20 or IS21 (20 μM for 24 h) and in M14, H1299 and MDA-MB-231 cell lines treated with IS20 or IS21 (20 μM for 72 h). Data are reported as mean ± SD of three independent experiments. p-values were calculated between control (Ctrl) and treated cells, * p < 0.05. […]

[2] = system: M14 cells; experiment: Western blot of LC3B-I/LC3B-II (autophagy), M14; format: cell-based, Human; conditions: 72 h
Protocol: Western blot analyses of total protein extracts were performed as previously described. Immunodetection was performed using antibodies directed to poly (ADP-ribose) polymerase (PARP; BD Biosciences San Diego, CA, USA), LC3B (Cell Signaling Technology, Danvers, MA), HSP72/73 (Calbiochem, EMD Biosciences, La Jolla, CA), Bcl-2 (SC-509, Santa Cruz Biotechnology Inc, Dallas, TX, USA), Bcl-xL (SC-271121, Santa Cruz Biotechnology Inc), Mcl-1 (SC-12756, Santa Cruz Biotechnology Inc) α-tubulin (Santa Cruz Biotechnology Inc) actin (Sigma-Aldrich, St. Louis, Missouri, USA). Anti-rabbit or anti-mouse immunoglobulin G-horseradish peroxidase-conjugated antibodies (Amersham Biosciences, Freiburg, Germany) were used as secondary antibody. Images were acquired by Image Lab Software (Bio-Rad, Hercules, CA, USA), using a ChemiDoc System instrument (Bio-Rad). The densitometric evaluation was performed using Image J software and normalized with relative controls.
Figure 6 Analysis of autophagosome accumulation in M14 and H1299 cells after treatment with IS20 or IS21. Western blot analysis of LC3B-I and LC3B-II protein levels in (A) M14, and (B) H1299 cell lines untreated (Ctrl) or treated with IS20 or IS21 for 72 h at the indicated concentrations. (C) Western blot analysis of LC3B-I and LC3B-II levels in HL60 and U937 cell lines untreated (Ctrl) or treated with IS20 or IS21 (20 μM for 24 h). (A-C) Reported images are representative of two independent experiments with similar results. HSP72/73, Actin or α-Tubulin are shown as loading and transferring control. […] Ratio of LC3B-II on LC3B-I levels, after normalization on HSP72/73, Actin or α-Tubulin, is quantified by densitometric analysis. (D) (Upper panels) Representative images and (lower panels) relative quantification of fluorescence microscopic analysis of LC3B puncta positive cells in M14 EGFP-LC3B and H1299 EGFP-LC3B transfected cells, treated with IS20 or IS21 (20 µM for 72h). […] Cells with more than 10 puncta were considered autophagy-positive. p-values were calculated between untreated (Ctrl) and treated cells, * p < 0.05.

[3] = system: M14 cells; experiment: Tumor sphere formation assay, M14; format: cell-based, Human; conditions: 20 µM for 72 h, respect to controls
Protocol: For tumor sphere assay, cells were recovered after treatment, counted and seeded in 24-well ultralow attachment surface plates at a density of 5 × 10^2 cells/well and cultured as previously described. After 10 days, spheres were photographed and counted. The percentage of spheres normalized to the number of seeded cells was calculated.
Figure 4 Analysis of the effect of IS20 and IS21 on cell viability, clonogenic ability and tumor sphere formation in cancer cells. (A) Analysis of cell viability by MTT assay in M14, H1299, HCT116 and MDA-MB-231 cell lines treated with IS20 or IS21 (20 μM for 72 h). The results are reported as “viability of treated cells/viability of control cells (Ctrl)” × 100. (B) Representative images and quantification of clonogenic ability evaluated in M14 and H1299 cells treated with IS20 or IS21 (20 μM for 72 h). Results are reported as percentage of clonogenicity of treated versus control cells. (C) Quantification of tumor sphere formation of M14 and H1299 cells treated with IS20 or IS21 (20 μM for 72 h). Results are reported as percentage of tumor sphere formation of treated versus control. (A-C) Data are reported as mean ± SD of three independent experiments. p-values were calculated between control (Ctrl) and treated cells, ** p < 0.001 and *** p < 0.0001.

[4] = system: H1299 cells; experiment: Flow cytometry subG1 peak (PI staining), H1299; format: cell-based, Human; conditions: 20 µM for 72 h
Protocol: Flow cytometric analysis (BD Accuri™ C6, BD Biosciences) was performed to evaluate cell cycle distribution by propidium iodide (PI) staining, and cell viability by using the PI dye exclusion assay as previously reported.
Figure 5 Analysis of apoptosis induction by IS20 and IS21 in leukemia, melanoma and NSCLC cells. […] (A-F) Reported images are representative of two independent experiments with similar results. HSP72/73 or α-Tubulin are shown as loading and transferring control. (G) Flow cytometric quantification of cells in the subG1 peak of cell cycle distribution by propidium iodide staining in HL60 cell line treated with IS20 or IS21 (20 μM for 24 h) and in M14, H1299 and MDA-MB-231 cell lines treated with IS20 or IS21 (20 μM for 72 h). Data are reported as mean ± SD of three independent experiments. p-values were calculated between control (Ctrl) and treated cells, * p < 0.05. (H) Flow cytometric quantification of cells in the subG1 peak by propidium iodide staining in M14 and H1299 cell lines treated with IS20 or IS21 (20 μM, 72 h) in presence or absence of the pan caspase inhibitor z-VAD (50 μM). p-values were calculated between treated control (Ctrl) cells, # p < 0.01, ## p < 0.001 or between cells treated with IS20 or IS21 alone or in combination with z-VAD, * p < 0.05, ** p < 0.005. (G-H) Data are reported as mean of two (H) or three (G) experiments ± SD.

[5] = system: HL60 cells; experiment: Cell viability by CellTiterGlo, HL60; format: cell-based; conditions: Homo sapiens, HL-60; 24 h, 5 to 50 µM
Protocol: The effect of compounds on cell viability was performed by measuring 3-[4,5-dimethylthiazol-2-yl]-2,5-diphenyltetrazolium bromide inner salt (MTT, Sigma-Aldrich) dye absorbance (solid tumor cells) or by quantization of ATP present in metabolically active cells using CellTiter-Glo® Luminescent (Promega, Fitchburg, Wisconsin, USA) (hematologic cells) following manifacturer's protocol. To evaluate the cell colony-forming ability, cell suspension from different samples was seeded into 60-mm Petri dishes. After 10 days, colonies were stained with 2% methylene blue in 95% ethanol and counted (1 colony > 50 cells). The surviving fractions were calculated as the ratio of absolute survival of the treated sample/survival of DMSO-treated control sample.
Figure 1 Cytotoxic screening of putative inhibitors of Bcl-2 anti-apoptotic proteins. (A) Flow cytometric quantification of propidium iodide exclusion assay in HL60 cells treated with the 49 putative Bcl-2 family inhibitors (50 μM, 72 h). (B) Analysis of cell viability by CellTiterGlo assay in HL60 cells treated for 24 h with concentrations ranging from 5 to 50 μM of the indicated compounds. (C-D) Analysis of cell viability by MTT assay in (C) M14 and (D) Sbcl2 melanoma cell lines treated for 72 h with concentrations ranging from 5 to 50 μM of the indicated compounds. […]

| SMILES | PARP1 cleavage, HL60 [1] | ratio of LC3B-II on LC3B-I / LC3B-II protein level, M14 [2] | decrease of sphere formation capacity, M14 [3] | subG1 peak of cell cycle distribution, H1299 [4] | IC50 [5] [µM] |
| --- | --- | --- | --- | --- | --- |
| CCCCOc1ccc(C2/C(=C(\O)c3ccc4c(c3)CC(C)O4)C(=O)C(=O)N2c2nnc(SCc3ccc(Cl)cc3)s2)cc1OCC (stereo not shown) [IS20] | cleavage of PARP1 | higher level | about 60% | presence of subG1 peak | 10.9 to 34 |
| CCCCCOc1ccc(C2/C(=C(\O)c3ccc4c(c3)CC(C)O4)C(=O)C(=O)N2c2nnc(SCc3ccc(Cl)cc3)s2)cc1OCC (stereo not shown) [IS21] | cleavage of PARP1 | higher level | about 60% | presence of subG1 peak | 10.9 to 34 |
